Results published in article PMC9332470, “Production and Selection of Antibody–Antigen Pairs for the Development of Immunoenzyme Assay and Lateral Flow Immunoassay Methods for Carbofuran and Its Analogues” (Biosensors, 2022).
Converted amounts (≈) assume the structure as drawn.

Tests used:
mAb 13C8 [1] = assay: quantum dot-based LFIA (QD-LFIA) with mAb 13C8; format: binding, BALB/c mice
Method: One milliliter of QDs was added to 9 mL of MES (0.054 M at pH 6.0) and centrifuged at 10,956× g for 20 min. Then, the precipitate was resuspended in 10 mL of MES (0.05 M at pH 6.0). After dispersion by ultrasonication for 2 min, EDC (20 mg) and NHS (20 mg) were added, and the reaction mixture was incubated for 30 min, followed by centrifugation at 10,956× g for 20 min. The precipitate was resuspended in 10 mL of MES (0.05 M at pH 6.0). Then, 1 mg of the mAb dissolved in 10 mL MES (0.027 M at pH 8.0) was added to the QD mixture and shaken at 25 °C and 180 rpm for 90 min. After the reaction, 5 mL of MES (0.054 M at pH 6.0 containing 1.6% BSA, w/v) was added, and the mixture was shaken at 25 °C and 180 rpm for 40 min, followed by centrifugation at 10,956× g for 20 min. The precipitate was resuspended in 10 mL of PB (0.01 M at pH 6.0, containing 5% casein, 1% glucose, 1.5% alanine and 0.05% NaN3, w/v) and dispersed by ultrasonication for 2 min.
The conjugate pad (6 mm × 300 mm) was pretreated with PBS (containing 0.5% Triton X-100, 0.5% alanine and 0.05% NaN3, w/v). Then, 1 mL of the mAb–QD conjugate was sprayed onto the pretreated conjugate pad at a flow rate of 10 μL/cm, and the pad was dried at 37 °C for 2 h. Other applied protocols were similar to those mentioned above.
Taking the logarithm of the carbofuran concentration as the abscissa and (B/B0)% as the ordinate, the standard curves for ELISA and QD-LFIA were obtained based on the Morgan–Mercer–Flodin (MMF) model, which were fitted by CurveExpert 1.4.0 software (https://www.curveexpert.net, accessed on 15 July 2022). For the ELISA method, B and B0 are the absorbance of the sample well and blank well, respectively. For the QD-LFIA method, B and B0 are the T/C (fluorescence intensity of the test line/fluorescence intensity of the control line) of the sample and blank control, respectively.
(§1) The inhibition ratio (I%) was calculated as (B0-B)/B0 × 100%. IC50 is the concentration of the carbofuran at an I% of 50%, and the limit of detection (LOD) was determined as the concentration showing 10% of inhibition.
The cross-reactivities (CRs) of benfuracarb, carbosulfan, 3-hydroxy-carbofuran, metolcarb, carbaryl, isoprocarb and aldicarb with carbofuran were assessed by ELISA and QD-LFIA. CR was calculated as CR (%) = [IC50 (carbofuran)/IC50 (analogues)] × 100%.
Then, to prepare QD-LFIA test strips, DDB-BSA (40 μg/mL), DDB-OVA (50 μg/mL), MDA-BSA (35 μg/mL) and MDA-OVA (30 μg/mL) were dispensed onto the NC membrane, and antibody 13C8 was conjugated to the QDs. Carbofuran standards (0, 0.05, 0.15, 0.45, 1.35 and 4.05 ng/mL) were detected to obtain a standard curve, and the IC50 was calculated. […] In LFIA, carbofuran in solution competed with the coating antigen on the NC membrane for antibody 13C8 conjugated to the QDs.
A standard curve was developed with the inhibition ratio (B/B0) versus the logarithm of the concentration of carbofuran.

mAb 13C8 [2] = assay: ELISA reactivity of hybridoma supernatant, cell line 13C8; format: binding, BALB/c mice; conditions: cell line 13C8 supernatant, 50 ng/mL pesticide
Method: (§2) The desired antibodies with the highest affinity were screened by icELISA with carbofuran as a competitive compound, and hybridoma cells were cloned by the limited dilution method. Then, the selected hybridoma cells were injected into mice for ascites production. Finally, the mAbs were purified by (NH4)2SO4 with saturation of 50% and further purified by an SPA column.
(§3) Microplates were coated with coating antigens. Different concentrations of the standard (50 µL) and the mAb (50 µL) were added to each well, and the plates were incubated for 20 min at 37 °C. The plates were washed with PBS (0.01 M, containing 0.05% (v/v) Triton X-100), 100 μL of goat anti-mouse IgG-HRP conjugate solution was added to each well, and the plates were incubated for 20 min at 37 °C. After the plates were washed with PBS (0.01 M, containing 0.05% Triton X-100, v/v), 100 µL of TMB single-component substrate solution was added to each well, followed by incubation at 37 °C for 10 min. Finally, the reaction was terminated, and the absorbance at 450 nm was measured by a microplate reader.
as §1
(§4) Then, the reactivity of the supernatant of the six cell lines to 50 ng/mL carbofuran, benfuracarb and carbosulfan was assessed by ELISA, and the results are shown in Table 1. […] Because 13C8 had the highest reactivity with carbofuran, benfuracarb and carbosulfan among the six cell lines, it was injected into mice for ascites production, and the mAbs were purified by a protein A column for further experiments.

mAb 6D6 = assay: ELISA reactivity of hybridoma supernatant, cell line 6D6; format: binding, BALB/c mice; conditions: cell line 6D6 supernatant, 50 ng/mL pesticide
Method: as §2, §3, §1, §4

mAb 12H5 = assay: ELISA reactivity of hybridoma supernatant, cell line 12H5; format: binding, BALB/c mice; conditions: cell line 12H5 supernatant, 50 ng/mL pesticide
Method: as §2, §3, §1, §4

mAb 7F9 = assay: ELISA reactivity of hybridoma supernatant, cell line 7F9; format: binding, BALB/c mice; conditions: cell line 7F9 supernatant, 50 ng/mL pesticide
Method: as §2, §3, §1, §4

[3] = tested on: mAb with the immunogen BFNB-KLH; conditions: homologous coating antigen BFNB-OVA; cited from earlier work
[4] = tested on: sol–gel-entrapped antibody; conditions: label-free electrochemical immunosensor; cited from earlier work

SMILES: CNC(=O)Oc1cccc2c1OC(C)(C)C2 [carbofuran]
- CR (%) (QD-LFIA) (mAb 13C8 [1]; CR = IC50(carbofuran)/IC50(analogue) x 100%, QD-LFIA with mAb 13C8): 100.0%
- IC50 (QD-LFIA) (mAb 13C8 [1]; antibody 13C8, antigen DDB-BSA (40 μg/mL) on NC membrane): >1000 ng/mL
- IC50 (QD-LFIA) (mAb 13C8 [1]; antibody 13C8, antigen DDB-OVA (50 μg/mL) on NC membrane): >1000 ng/mL
- IC50 (QD-LFIA) (mAb 13C8 [1]; antibody 13C8, antigen MDA-BSA (35 μg/mL) on NC membrane): 0.68 ± 0.03 ng/mL (≈ 3.07 nM)
- IC50 (QD-LFIA) (mAb 13C8 [1]; antibody 13C8, antigen MDA-OVA (30 μg/mL) on NC membrane): 0.66 ± 0.03 ng/mL (≈ 2.98 nM)
- detection limit (QD-LFIA) (mAb 13C8 [1]; concentration showing 10% of inhibition): 0.04 ng/mL
- reaction of QD-LFIA test strips (mAb 13C8 [1]; homologous coating antigens DDB-BSA and DDB-OVA): almost no reaction
- working range (QD-LFIA) (mAb 13C8 [1]; optimized QD-LFIA): 0.04 to 4.21 ng/mL
- IC50 (QD-LFIA) (mAb 13C8 [1]; optimized QD-LFIA, mAb 13C8-QD, T line antigen 30 μg/mL, given as MDA-BSA and MDA-OVA): 0.67 ± 0.08 ng/mL (≈ 3.03 nM)
- IC50 of QD-LFIA with heterologous coating antigens (mAb 13C8 [1]; span over MDA-BSA and MDA-OVA): 0.66–0.68 ng/mL
- Reactivity of mAb (I%) (mAb 13C8 [2]): 95%
- Reactivity of mAb (I%) (mAb 6D6): 86%
- Reactivity of mAb (I%) (mAb 12H5): 78%
- Reactivity of mAb (I%) (mAb 7F9): 76%
- IC50 (ic-ELISA) [3]: 0.3 ng/mL (≈ 1.36 nM)
- detection limit [4]: 0.33 ng/mL
